Values joined by “and” are separate entries in the source; they are usually repeats but may differ in a detail not shown here. Equal entries are not always repeated. Toxic doses and inconclusive results are not listed.
Test system: L1210 leukemia ip in BDF1 mice, survival T/C
Assay: NCI In Vivo Anticancer Drug Screen. Data for tumor model L1210 Leukemia (intraperitoneal) in B6D2F1 (BDF1) mice
Conditions: endpoint: mean survival time, higher = longer survival
Outline: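 Antitumor effect is assessed in tumor-bearing animals. Survival in the compound arm is compared with a vehicle-dosed control arm and expressed as their quotient.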

O=c1cnn(C2OC(CO)C(O)C2O)c(=O)[nH]1 (stereo not drawn)
T/C (dose: 12.5 mg/kg/injection, schedule: Q#A X Z (ip), vehicle: saline): 160 % of control
T/C (dose: 25.0 mg/kg/injection, schedule: Q01DX Z (im), vehicle: saline): 150 % of control
T/C (dose: 25.0 mg/kg/injection, schedule: Q01DX Z (ip), vehicle: methylcellulose (MC)): 120 % of control
T/C (dose: 25.0 mg/kg/injection, schedule: Q01DX Z (ip), vehicle: saline): 156 % of control
T/C (dose: 25.0 mg/kg/injection, schedule: Q#A X Z (ip), vehicle: saline): 156 % of control
T/C (dose: 32.0 mg/kg/injection, schedule: Q01DX009 (oral), vehicle: saline): 151 % of control
T/C (dose: 50.0 mg/kg/injection, schedule: Q01DX010 (ip), vehicle: saline): 120 % of control
T/C (dose: 50.0 mg/kg/injection, schedule: Q01DX Z (im), vehicle: saline): 156 % of control
T/C (dose: 50.0 mg/kg/injection, schedule: Q01DX Z (ip), vehicle: methylcellulose (MC)): 120 % of control
T/C (dose: 50.0 mg/kg/injection, schedule: Q01DX Z (ip), vehicle: saline): 159 % of control
T/C (dose: 50.0 mg/kg/injection, schedule: Q01DX Z (oral), vehicle: other): 158 % of control
T/C (dose: 50.0 mg/kg/injection, schedule: Q#A X Z (ip), vehicle: saline): 164 % of control
T/C (dose: 75.0 mg/kg/injection, schedule: Q01DX005 (ip), vehicle: saline): 112 % of control
T/C (dose: 88.0 mg/kg/injection, schedule: Q01DX Z (ip), vehicle: methylcellulose (MC)): 122 % of control
T/C (dose: 100.0 mg/kg/injection, schedule: Q01DX010 (ip), vehicle: saline): 123 % of control
T/C (dose: 100.0 mg/kg/injection, schedule: Q01DX Z (ip), vehicle: methylcellulose (MC)): 116 % of control
T/C (dose: 100.0 mg/kg/injection, schedule: Q01DX Z (oral), vehicle: saline): 151 % of control
T/C (dose: 100.0 mg/kg/injection, schedule: Q#A X Z (ip), vehicle: saline): 176 % of control
T/C (dose: 128.0 mg/kg/injection, schedule: Q03HX016 (oral), vehicle: saline): 116 % of control
T/C (dose: 132.0 mg/kg/injection, schedule: Q01DX Z (ip), vehicle: methylcellulose (MC)): 117 % of control
T/C (dose: 150.0 mg/kg/injection, schedule: Q01DX005 (ip), vehicle: saline): 115 % of control
T/C (dose: 150.0 mg/kg/injection, schedule: Q01DX Z (oral), vehicle: saline): 172 % of control
T/C (dose: 150.0 mg/kg/injection, schedule: Q## X003 (ip), vehicle: saline): 105 % of control
T/C (dose: 152.0 mg/kg/injection, schedule: Q## X024 (ip), vehicle: saline): 123 % of control
T/C (dose: 180.0 mg/kg/injection, schedule: Q01DX009 (ip), vehicle: saline): 120 % of control
T/C (dose: 200.0 mg/kg/injection, schedule: Q#A X Z (ip), vehicle: saline): 176 % of control
T/C (dose: 256.0 mg/kg/injection, schedule: Q03HX016 (ip), vehicle: saline): 153 % of control
T/C (dose: 300.0 mg/kg/injection, schedule: Q01DX005 (ip), vehicle: saline): 118 % of control
T/C (dose: 300.0 mg/kg/injection, schedule: Q01DX009 (oral), vehicle: saline): 123 % of control
T/C (dose: 300.0 mg/kg/injection, schedule: Q01DX Z (oral), vehicle: saline): 159 % of control
T/C (dose: 300.0 mg/kg/injection, schedule: Q03DX Z (ip), vehicle: other): 119 % of control
T/C (dose: 300.0 mg/kg/injection, schedule: Q## X003 (ip), vehicle: saline): 106 % of control
T/C (dose: 304.0 mg/kg/injection, schedule: Q## X024 (ip), vehicle: saline): 151 % of control
T/C (dose: 350.0 mg/kg/injection, schedule: Q01DX001 (ip), vehicle: saline): 109 % of control
T/C (dose: 350.0 mg/kg/injection, schedule: Q07DX Z (ip), vehicle: saline): 109 % of control
T/C (dose: 400.0 mg/kg/injection, schedule: Q01DX Z (oral), vehicle: other): 191 % of control
T/C (dose: 400.0 mg/kg/injection, schedule: Q#A X Z (ip), vehicle: saline): 158 % of control
T/C (dose: 512.0 mg/kg/injection, schedule: Q03HX016 (ip), vehicle: saline): 162 % of control
T/C (dose: 512.0 mg/kg/injection, schedule: Q03HX016 (oral), vehicle: saline): 158 % of control
T/C (dose: 600.0 mg/kg/injection, schedule: Q01DX001 (ip), vehicle: saline): 101 % of control
T/C (dose: 600.0 mg/kg/injection, schedule: Q01DX001 (oral), vehicle: saline): 109 % of control
T/C (dose: 600.0 mg/kg/injection, schedule: Q01DX001 (sc), vehicle: saline): 106 % of control
T/C (dose: 600.0 mg/kg/injection, schedule: Q01DX005 (ip), vehicle: saline): 121 % of control
T/C (dose: 600.0 mg/kg/injection, schedule: Q01DX009 (oral), vehicle: saline): 118 % of control
T/C (dose: 600.0 mg/kg/injection, schedule: Q01DX Z (oral), vehicle: saline): 154 % of control
T/C (dose: 600.0 mg/kg/injection, schedule: Q## X002 (ip), vehicle: saline): 98 % of control
T/C (dose: 600.0 mg/kg/injection, schedule: Q## X003 (ip), vehicle: saline): 107 % of control
T/C (dose: 600.0 mg/kg/injection, schedule: Q## X008 (ip), vehicle: saline): 119 % of control
T/C (dose: 600.0 mg/kg/injection, schedule: Q## X016 (ip), vehicle: saline): 117 % of control
T/C (dose: 700.0 mg/kg/injection, schedule: Q01DX001 (ip), vehicle: saline): 113 % of control and 116 % of control
T/C (dose: 700.0 mg/kg/injection, schedule: Q07DX Z (ip), vehicle: other): 111 % of control
T/C (dose: 700.0 mg/kg/injection, schedule: Q07DX Z (ip), vehicle: saline): 113 % of control
T/C (dose: 800.0 mg/kg/injection, schedule: Q01DX009 (ip), vehicle: saline): 110 % of control
T/C (dose: 800.0 mg/kg/injection, schedule: Q01DX Z (im), vehicle: saline): 151 % of control
T/C (dose: 800.0 mg/kg/injection, schedule: Q## X000 (other), vehicle: other): 107 % of control
T/C (dose: 800.0 mg/kg/injection, schedule: Q#A X Z (ip), vehicle: saline): 101 % of control
T/C (dose: 1024.0 mg/kg/injection, schedule: Q03HX016 (ip), vehicle: saline): 176 % of control
T/C (dose: 1024.0 mg/kg/injection, schedule: Q03HX016 (oral), vehicle: saline): 161 % of control
T/C (dose: 1200.0 mg/kg/injection, schedule: Q01DX001 (oral), vehicle: saline): 112 % of control
T/C (dose: 1200.0 mg/kg/injection, schedule: Q01DX001 (sc), vehicle: saline): 110 % of control
T/C (dose: 1200.0 mg/kg/injection, schedule: Q01DX009 (ip), vehicle: saline): 98 % of control
T/C (dose: 1200.0 mg/kg/injection, schedule: Q01DX009 (oral), vehicle: saline): 100 % of control
T/C (dose: 1200.0 mg/kg/injection, schedule: Q01DX009 (sc), vehicle: saline): 94 % of control
T/C (dose: 1200.0 mg/kg/injection, schedule: Q01DX Z (oral), vehicle: saline): 104 % of control
T/C (dose: 1200.0 mg/kg/injection, schedule: Q03DX Z (ip), vehicle: other): 158 % of control
T/C (dose: 1200.0 mg/kg/injection, schedule: Q## X002 (ip), vehicle: saline): 110 % of control
T/C (dose: 1200.0 mg/kg/injection, schedule: Q## X003 (ip), vehicle: saline): 114 % of control
T/C (dose: 1200.0 mg/kg/injection, schedule: Q## X008 (ip), vehicle: saline): 123 % of control
T/C (dose: 1200.0 mg/kg/injection, schedule: Q## X024 (ip), vehicle: saline): 155 % of control
T/C (dose: 1400.0 mg/kg/injection, schedule: Q01DX001 (ip), vehicle: saline): 115 % of control and 116 % of control
T/C (dose: 1400.0 mg/kg/injection, schedule: Q07DX Z (ip), vehicle: other): 117 % of control
T/C (dose: 1600.0 mg/kg/injection, schedule: Q01DX009 (ip), vehicle: saline): 92 % of control
T/C (dose: 1600.0 mg/kg/injection, schedule: Q01DX Z (oral), vehicle: other): 96 % of control
T/C (dose: 1600.0 mg/kg/injection, schedule: Q01DX Z (oral), vehicle: saline): 98 % of control
T/C (dose: 2048.0 mg/kg/injection, schedule: Q03HX016 (ip), vehicle: saline): 174 % of control
T/C (dose: 2400.0 mg/kg/injection, schedule: Q01DX001 (oral), vehicle: saline): 117 % of control
T/C (dose: 2400.0 mg/kg/injection, schedule: Q01DX001 (sc), vehicle: saline): 115 % of control
T/C (dose: 2400.0 mg/kg/injection, schedule: Q03DX Z (ip), vehicle: other): 151 % of control
T/C (dose: 2400.0 mg/kg/injection, schedule: Q## X002 (ip), vehicle: saline): 107 % of control
T/C (dose: 2400.0 mg/kg/injection, schedule: Q## X024 (ip), vehicle: saline): 153 % of control
T/C (dose: 2800.0 mg/kg/injection, schedule: Q01DX001 (ip), vehicle: saline): 121 % of control
T/C (dose: 2800.0 mg/kg/injection, schedule: Q07DX Z (ip), vehicle: other): 124 % of control
T/C (dose: 3200.0 mg/kg/injection, schedule: Q01DX Z (im), vehicle: saline): 87 % of control

Source: PubChem BioAssay AID248 (DTP/NCI, 2004)
